Data set [1] deals with T1, NLRP3 (Homo sapiens, UniProt Q96P20). Description: THP-1 cells pyroptosis assay. The class given is cell-based. The conditions noted are these: LPS 1 μg/ml, nigericin 5 μM, resazurin readout. On the procedure: THP-1 cells (ATCC #TIB-202) were grown in RPMI containing L-glutamine (Gibco #11835) supplemented with 1 mM sodium pyruvate (Sigma #S8636) and penicillin (100 units/ml)/streptomycin (0.1 mg/ml) (Sigma #P4333) in 10% Fetal Bovine Serum (FBS) (Sigma #F0804). The cells were routinely passaged and grown to confluency (˜10^6 cells/ml). On the day of the experiment, THP-1 cells were harvested and resuspended into RPMI medium (without FBS). The cells were then counted and viability (>90%) checked by Trypan blue (Sigma #T8154). Appropriate dilutions were made to give a concentration of 625,000 cells/ml. To this diluted cell solution was added LPS (Sigma #L4524) to give a 1 μg/ml Final Assay Concentration (FAC). 40 μl of the final preparation was aliquoted into each well of a 96-well plate. The plate thus prepared was used for compound screening.
The following method step-by-step assay was followed for compound screening. • 1. Seed THP-1 cells (25,000 cells/well) containing 1.0 μg/ml LPS in 40 μl of RPMI medium (without FBS) in 96-well, black walled, clear bottom cell culture plates coated with poly-D-lysine (VWR #734-0317) • 2. Add 5 μl compound (8 points half-log dilution, with 10 μM top dose) or vehicle (DMSO 0.1% FAC) to the appropriate wells • 3. Incubate for 3 hours at 37° C., 5% CO2 • 4. Add 5 μl nigericin (Sigma #N7143) (FAC 5 μM) to all wells • 5. Incubate for 1 hr at 37° C., 5% CO2 • 6. At the end of the incubation period, spin plates at 300xg for 3 mins and remove supernatant • 7. Then add 50 μl of resazurin (Sigma #R7017) (FAC 100 μM resazurin in RPMI medium without FBS) and incubate plates for a further 1-2 hours at 37° C. and 5% CO2 • 8. Plates were read in an Envision reader at Ex 560 nm and Em 590 nm • 9. IC50 data is fitted to a non-linear regression equation (log inhibitor vs response-variable slope 4-parameters)
A general note: The colour change of resazurin is a common sign of viable cells or microbes.

The target of data set [2] is T2, hERG cardiac potassium channel (Homo sapiens, UniProt Q12809).
T2 construct: host or cells: CHO crelox hERG cell line (Chinese hamster cells)
Description: hERG screening assay (automated patch clamp, CHO-hERG cells). The class given is cell-based. The note with it: CHO crelox hERG cell line (CHO cells that express hERG), whole-cell patch clamp, 35-37° C. An excerpt: In the drug development process of small molecules, one of the most frequent adverse side effects, leading to the failure of drugs, is the cardiac arrhythmias. Such failure is often related to the capacity of the drug to inhibit the human ether-à-go-go-related gene (hERG) cardiac potassium channel. Having no or low inhibition of the hERG cardiac potassium channel is therefore considered as beneficial.
The CHO crelox hERG cell line (ATCC reference Nr. PTA-6812, female Chinese hamster cells) was generated and validated at Roche. Ready-to-use frozen instant CHO-hERG cells were cryopreserved at Evotec (Germany) and used directly in the experiments.
The extracellular solution contains (in mM): NaCl 150; KCl 4; CaCl2) 1; MgCl2 1; HEPES 10; pH 7.2-7.4 with NaOH, osmolarity 290-330 mOsm. […]
The effects of a compound on hERG K+-currents parameters will be evaluated at 2 concentrations in at least 4 cells.
The hERG test is performed using automated patch clamp system SynchroPatch® 384 (Nanion Technologies GmbH, Germany). K+ currents are measured with the patch-voltage-clamp technique in the whole-cell configuration at 35-37° C. […]
The amplitudes of IKhERG were recorded in each concentration of drug and they were compared to the vehicle control values (taken as 100%) to define fractional blocks. […]

A short description of data set [3]: Metabolic stability in human hepatocytes. Type of data set: in vitro ADME. The protocol: Biological materials. Cryopreserved hepatocytes [mouse, rat, rabbit, monkey and human (male and female; mixed)] are obtained. Viability of hepatocytes after reconstitution is at least 80% throughout the study. Ready-to-use rat/human HepatoPac® cultures [long-term hepatocyte co-cultures; pooled (n=5 for male and n=5 for female for human)] with stromal mouse fibroblasts (negative control; pooled) with the plates for incubations, application medium and maintenance medium are acquired.
Metabolism by suspended hepatocytes. Primary pooled cryopreserved hepatocytes are reconstituted in pre-warmed William's E media containing 10% FCS, 0.05 mg/mL streptomycin and 50 U/mL penicillin and 0.4 mM L-glutamine; and 0.01 mg/mL gentamicin, 0.048 mg/mL hydrocortisone and 0.004 mg/mL insulin, to a final suspension density of 1×10^6 cells/mL. The incubation was performed fully automatically with Liquid Handling System (Tecan) equipped with a CO2 incubator with an orbital shaker. After the addition of a test compound at e.g. 1 μM to the wells (1×10^5 cells/well), the 96-well hepatocyte suspension culture plates are incubated in a 5% CO2 at 37° C. Samples are quenched by addition of acetonitrile (including an internal standard) to the incubation well at the designated time points up to 2 h.
Metabolism by HepatoPac®. […]
Samples are then centrifuged appropriately and the supernatant analyzed by LC-MS/MS. […]

For data set [4], the target named is T1, NLRP3. Briefly: Human whole blood IL-1β release assay. The class given is cell-based. Further details: Human whole blood in Li-heparin tubes was obtained from healthy donors; from tissue; host or cells: human whole blood from healthy donors. The note with it: LPS 1 μg/ml, nigericin 10 μM, IL-1β AlphaLisa, read-out: Human whole blood IL-1ß Assay IC50. The protocol: For systemic delivery, the ability to inhibit NLRP3 when the compounds are present within the bloodstream is of great importance. For this reason, the NLRP3 inhibitory activity of a number of compounds in human whole blood was investigated in accordance with the following protocol.
Human whole blood in Li-heparin tubes was obtained from healthy donors from a volunteer donor panel. • 1. Plate out 80 μl of whole blood containing 1 μg/ml of LPS in 96-well, clear bottom cell culture plate (Corning #3585) • 2. Add 10 μl compound (8 points half-log dilution with 10 μM top dose) or vehicle (DMSO 0.1% FAC) to the appropriate wells • 3. Incubate for 3 hours at 37° C., 5% CO2 • 4. Add 10 μl nigericin (Sigma #N7143) (10 μM FAC) to all wells • 5. Incubate for 1 hr at 37° C., 5% CO2 • 6. At the end of the incubation period, spin plates at 300xg for 5 mins to pellet cells and remove 20 μl of supernatant and add to 96-well v-bottom plates for IL-1β analysis (note: these plates containing the supernatants can be stored at −80° C. to be analysed at a later date) • 7. IL-1β was measured according to the manufacturer protocol (Perkin Elmer-AlphaLisa IL-1 Kit AL220F-5000) • 8. IC50 data is fitted to a non-linear regression equation (log inhibitor vs response-variable slope 4-parameters)
A general note: In Alpha technology, singlet oxygen from a donor bead excites a nearby acceptor bead.

T1 sequence (Q96P20 whole entry): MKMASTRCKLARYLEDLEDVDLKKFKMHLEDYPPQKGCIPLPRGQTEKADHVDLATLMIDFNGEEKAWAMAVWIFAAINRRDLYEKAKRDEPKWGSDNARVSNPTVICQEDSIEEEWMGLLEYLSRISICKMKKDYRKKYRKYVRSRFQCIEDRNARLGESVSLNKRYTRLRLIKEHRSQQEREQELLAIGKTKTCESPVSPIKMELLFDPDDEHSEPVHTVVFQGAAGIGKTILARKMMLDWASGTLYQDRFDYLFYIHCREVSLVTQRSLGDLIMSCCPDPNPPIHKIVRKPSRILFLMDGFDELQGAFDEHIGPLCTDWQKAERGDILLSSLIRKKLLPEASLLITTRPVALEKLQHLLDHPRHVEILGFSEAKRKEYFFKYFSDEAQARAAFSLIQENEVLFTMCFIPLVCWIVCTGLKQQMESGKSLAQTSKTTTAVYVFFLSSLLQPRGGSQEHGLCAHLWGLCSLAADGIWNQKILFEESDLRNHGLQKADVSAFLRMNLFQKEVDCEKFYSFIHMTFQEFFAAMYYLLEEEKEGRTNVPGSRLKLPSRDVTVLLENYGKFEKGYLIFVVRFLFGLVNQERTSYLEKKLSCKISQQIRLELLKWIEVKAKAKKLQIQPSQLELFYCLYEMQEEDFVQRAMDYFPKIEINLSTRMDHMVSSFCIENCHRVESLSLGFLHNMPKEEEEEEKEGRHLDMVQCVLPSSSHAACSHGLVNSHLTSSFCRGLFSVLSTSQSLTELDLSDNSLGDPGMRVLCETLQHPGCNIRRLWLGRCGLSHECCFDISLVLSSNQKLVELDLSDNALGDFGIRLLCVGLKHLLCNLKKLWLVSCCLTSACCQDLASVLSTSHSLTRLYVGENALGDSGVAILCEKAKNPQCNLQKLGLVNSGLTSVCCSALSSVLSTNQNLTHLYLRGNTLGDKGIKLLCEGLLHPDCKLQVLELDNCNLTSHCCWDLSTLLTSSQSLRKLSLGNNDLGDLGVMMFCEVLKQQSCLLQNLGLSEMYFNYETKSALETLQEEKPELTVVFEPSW
T2 sequence (Q12809 whole entry): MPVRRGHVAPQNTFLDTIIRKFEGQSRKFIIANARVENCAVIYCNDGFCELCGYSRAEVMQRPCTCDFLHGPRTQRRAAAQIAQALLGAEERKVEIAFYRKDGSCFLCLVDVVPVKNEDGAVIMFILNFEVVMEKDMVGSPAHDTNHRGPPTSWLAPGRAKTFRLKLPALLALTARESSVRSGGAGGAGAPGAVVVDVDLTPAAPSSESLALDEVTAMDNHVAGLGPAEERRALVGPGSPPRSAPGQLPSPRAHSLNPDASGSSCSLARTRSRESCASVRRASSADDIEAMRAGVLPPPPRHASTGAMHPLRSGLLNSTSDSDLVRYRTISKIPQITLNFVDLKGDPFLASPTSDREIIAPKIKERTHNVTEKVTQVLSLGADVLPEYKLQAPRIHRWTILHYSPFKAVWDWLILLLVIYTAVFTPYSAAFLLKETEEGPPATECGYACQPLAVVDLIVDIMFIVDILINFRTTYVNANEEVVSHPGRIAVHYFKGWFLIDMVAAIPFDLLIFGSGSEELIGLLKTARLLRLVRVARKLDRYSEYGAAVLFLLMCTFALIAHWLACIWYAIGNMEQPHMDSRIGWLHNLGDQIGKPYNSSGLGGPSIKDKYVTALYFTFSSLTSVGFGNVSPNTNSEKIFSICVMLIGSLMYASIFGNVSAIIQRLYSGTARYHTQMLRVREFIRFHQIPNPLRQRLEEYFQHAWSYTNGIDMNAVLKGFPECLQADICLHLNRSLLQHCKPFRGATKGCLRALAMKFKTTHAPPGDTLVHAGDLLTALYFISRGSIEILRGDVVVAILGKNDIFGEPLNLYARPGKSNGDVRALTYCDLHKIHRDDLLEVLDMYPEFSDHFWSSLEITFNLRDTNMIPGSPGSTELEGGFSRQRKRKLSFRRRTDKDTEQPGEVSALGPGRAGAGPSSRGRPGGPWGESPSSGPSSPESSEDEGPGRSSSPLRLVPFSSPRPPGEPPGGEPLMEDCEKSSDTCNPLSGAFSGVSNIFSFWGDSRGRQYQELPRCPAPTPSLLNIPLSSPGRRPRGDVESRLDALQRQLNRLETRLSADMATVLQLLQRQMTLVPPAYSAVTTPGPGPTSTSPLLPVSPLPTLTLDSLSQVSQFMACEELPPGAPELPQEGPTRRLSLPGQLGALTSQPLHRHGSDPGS

For `CCN1CCC[C@@H](Nc2nnc(-c3ccc4c(c3O)CCC4)n(C)c2=O)C1` [Example 1, 6-[[(3R)-1-Ethyl-3-piperidyl]amino]-3-(4-hydroxyindan-5-yl)-4-methyl-1,2,4-triazin-5-one], the concentration for half-maximal inhibition (IC50) (usually the concentration that gives 50% inhibition) against NLRP3 [1] turned out to be 1.5 nM; on NLRP3 [4], 8 nM. Moreover, in data set [2], the IC20 (as a rule, the concentration needed for an effect of 20%) is greater than 10000 nM. The “Clint at 1 μM” value in data set [3] is recorded as less than 0.2 μl/min/10E6 cells.

On to `CCN1CCC[C@@H](Nc2nnc(-c3ccc4c(c3O)CC4)n(C)c2=O)C1` [Example 2], for which the IC50 came to 5.8 nM on NLRP3 [1] and 10 nM at NLRP3 [4].

As for `CCN1CCC[C@@H](N(C)c2nnc(-c3ccc4c(c3O)CCC4)n(C)c2=O)C1` [Example 3, 6-[[(3R)-1-Ethyl-3-piperidyl]-methyl-amino]-3-(4-hydroxyindan-5-yl)-4-methyl-1,2,4-triazin-5-one], the IC50 against NLRP3 [1] turned out to be 13 nM; on NLRP3 [4], 26 nM.

For the origin of these results see US20260176250A1, “TRIAZINONE DERIVATIVES AS NLRP3 INHIBITORS” (Hoffmann-La Roche Inc., priority 2022, published 2026).
